Measured values published in paper PMC9396064, “The enzyme pseudooxynicotine amine oxidase from Pseudomonas putida S16 is not an oxidase, but a dehydrogenase” (The Journal of Biological Chemistry, 2022).

Target: T1, Pnao (pseudooxynicotine amine oxidase) (Pseudomonas putida, UniProt F8G0P1)
T1 construct: signal peptide removed (from Ala45 onward); N-terminal His-SUMO tag cleaved with ULP1; pET28a, E. coli BL21 (DE3); FAD-containing homodimer
Test: X-ray crystal structure, […] Å
Format: binding
Conditions: crystals pH 9; oxidized FAD at the active site

T1 sequence (F8G0P1 45-496): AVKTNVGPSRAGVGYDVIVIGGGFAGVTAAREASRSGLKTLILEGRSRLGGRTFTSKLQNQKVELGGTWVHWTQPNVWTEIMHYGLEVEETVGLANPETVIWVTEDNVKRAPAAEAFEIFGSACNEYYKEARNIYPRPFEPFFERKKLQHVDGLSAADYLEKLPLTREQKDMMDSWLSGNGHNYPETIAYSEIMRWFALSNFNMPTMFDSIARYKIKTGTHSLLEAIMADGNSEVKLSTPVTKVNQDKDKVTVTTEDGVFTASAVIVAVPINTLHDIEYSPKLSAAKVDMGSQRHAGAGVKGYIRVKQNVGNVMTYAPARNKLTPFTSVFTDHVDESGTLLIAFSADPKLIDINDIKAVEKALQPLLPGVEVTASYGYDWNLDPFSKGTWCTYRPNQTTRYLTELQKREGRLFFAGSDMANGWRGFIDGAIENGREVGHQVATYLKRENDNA

## Cc1cc2nc3c(=O)[nH]c(=O)nc-3n(C[C@H](O)[C@H](O)[C@H](O)COP(=O)(O)OP(=O)(O)OC[C@H]3O[C@@H](n4cnc5c(N)ncnc54)[C@H](O)[C@@H]3O)c2cc1C [flavin adenine dinucleotide]
  X-ray crystal structure, 2.60 Å: Our structure of Pnao contained oxidized FAD
